# Data reported in patent publication US12691112B2, “FGFR tyrosine kinase inhibitors for the treatment of urothelial carcinoma” (Janssen Pharmaceutica NV, priority 2019, dated 2026).
# Where “and” joins values, the source holds several entries; their conditions need not be identical. Identical values can stand only once. Like-named read-outs stand apart in the source and are kept apart here.
# Tested on: metastatic or surgically unresectable urothelial cancer harboring select FGFR genetic alterations
# Settings: for Disease control rate (CR + PR + SD) / Inevaluable / Objective response rate (CR + PR) / Progressive disease (PD) / Confirmed complete response (CR) / Confirmed partial response (PR) / 6-month progression-free survival rate (95% CI), among responders / 9-month progression-free survival rate (95% CI), among responders / 12-month progression-free survival rate (95% CI), among responders: chemo relapsed/refractory
# Excerpt: The study comprises a Screening Phase (molecular screening at any time prior to first dose and study screening within 30 days of first dose), a treatment phase, and a post-treatment follow-up phase. The treatment phase comprises the period from first dose until the end-of-treatment visit. The follow-up phase extends until the subject has died, withdraws consent, is lost to follow-up, or the end of study, whichever comes first.
# Included patients were adults with measurable urothelial cancer per Response Evaluation Criteria in Solid Tumors version 1.1.
# Patients were required to have at least 1 FGFR2/FGFR3 mutation or fusion per central lab testing of RNA from formalin-fixed, paraffin-embedded tumor samples, using a custom reverse transcriptase polymerase chain reaction assay.
# Patients were contacted every 12 weeks for survival assessment.
# The study was designed to enroll 180 patients with specified FGFR alterations. Of these, ≥88 were required in the selected regimen. […] Responses were assessed by investigators and an independent radiological review committee. Progression-free survival and overall survival were estimated using Kaplan-Meier product limit method. Data from patients who were progression free and alive or with unknown status were censored at last tumor assessment. Efficacy end points were analysed at primary analysis cut-off.
# [1] = 10 mg 7 on/7 off, Mutation and fusion: FGFR3-S249C/FGFR3-Y373C/FGFR2-CASP7/FGFR3-BAIAP2L1/FGFR3-TACC3 V1/FGFR3-TACC3 V3, n=1
# [2] = 10 mg 7 on/7 off, Mutation: FGFR3-G370C/FGFR3-S249C, n=1
# [3] = 10 mg 7 on/7 off, Mutation: FGFR3-R248C/FGFR3-Y373C, n=1
# [4] = 10 mg 7 on/7 off, Mutation: FGFR3-S249C/FGFR3-Y373C, n=1
# [5] = Regimen 1, 10 mg intermittent (n=33)
# [6] = Regimen 2, 6 mg continuous (n=78)
# [7] = Regimen 3, 8 mg continuous (n=99)
# [8] = Total (all 3 regimens), Any FGFR alterations, n=189
# [9] = Total (all 3 regimens), FGFR fusions (excluding mutations), 6 responders
# [10] = Total (all 3 regimens), FGFR fusions (excluding mutations), n=35
# [11] = Total (all 3 regimens), FGFR mutations (excluding fusions), 58 responders
# [12] = Total (all 3 regimens), FGFR mutations (excluding fusions), n=147
# [13] = Total (all 3 regimens), FGFR mutations and fusions, 4 responders
smiles,measurement,setting,value
"COc1cc(OC)cc(N(CCNC(C)C)c2ccc3ncc(-c4cnn(C)c4)nc3c2)c1 [erdafitinib, N-(3,5-dimethoxy-phenyl)-N′-(1-methylethyl)-N-[3-(1-methyl-1H-pyrazol-4-yl)quinoxalin-6-yl]ethane-1,2-diamine]",Disease control rate (CR + PR + SD),[1],1 (100.0%)
same,Inevaluable,[1],0%
same,Objective response rate (CR + PR),[1],0%
same,Progressive disease (PD),[1],0%
same,Confirmed complete response (CR),[2],0%
same,Confirmed partial response (PR),[2],1 (100.0%)
same,Disease control rate (CR + PR + SD),[2],1 (100.0%)
same,Inevaluable,[2],0%
same,Objective response rate (CR + PR),[2],1 (100.0%)
same,Progressive disease (PD),[2],0%
same,Confirmed complete response (CR),[3],0%
same,Confirmed partial response (PR),[3],1 (100.0%)
same,Disease control rate (CR + PR + SD),[3],1 (100.0%)
same,Inevaluable,[3],0%
same,Objective response rate (CR + PR),[3],1 (100.0%)
same,Progressive disease (PD),[3],0%
same,Confirmed complete response (CR),[4],0%
same,Confirmed partial response (PR),[4],0%
same,Disease control rate (CR + PR + SD),[4],1 (100.0%)
same,Inevaluable,[4],0%
same,Objective response rate (CR + PR),[4],0%
same,Progressive disease (PD),[4],0%
same,Complete response per investigator assessment,[5],1 (3) %
same,Not evaluable or unknown per investigator assessment,[5],2 (6) %
same,Objective response rate per investigator assessment,[5],7 (21) %
same,Partial response per investigator assessment,[5],6 (18) %
same,Progressive disease per investigator assessment,[5],6 (18) %
same,Stable disease per investigator assessment,[5],18 (55) %
same,Objective response rate per investigator assessment,"Regimen 1, 10 mg intermittent, liver metastases",3/11 (27) %
same,Complete response per investigator assessment,[6],3 (4) %
same,Not evaluable or unknown per investigator assessment,[6],5(6) %
same,Objective response rate per investigator assessment,[6],27 (35) %
same,Partial response per investigator assessment,[6],24 (31) %
same,Progressive disease per investigator assessment,[6],16 (21) %
same,Objective response rate per investigator assessment,"Regimen 2, 6 mg continuous, bone metastases",6/15 (40) %
same,Not evaluable or unknown per investigator assessment,[7],2 (2.0) %
same,Objective response rate per investigator assessment,[7],40.4% and 40% and 40 (40.4) %
same,Partial response per investigator assessment,[7],37 (37.4) %
same,Progressive disease per investigator assessment,[7],18 (18.2) %
same,Stable disease per investigator assessment,[7],39% and 39 (39.4) %
same,Objective response rate per investigator assessment,"Regimen 3, 8 mg continuous, with FGFR3 mutations (n=74)",48.6% and 36/74 (48.6) %
same,"Median DoR (95% CI), investigator assessment","Regimen 3, chemotherapy-refractory patients, N = 87","5.55 (4.21, 7.00) months"
same,Confirmed complete response (CR),[8],7 (3.7%)
same,Confirmed partial response (PR),[8],61 (32.3%)
same,Disease control rate (CR + PR + SD),[8],147 (77.8%)
same,Inevaluable,[8],8 (4.2%)
same,Objective response rate (CR + PR),[8],68 (36.0%)
same,Progressive disease (PD),[8],34 (18.0%)
same,"6-month progression-free survival rate (95% CI), among responders",[9],"0.50 (0.11, 0.80)"
same,"9-month progression-free survival rate (95% CI), among responders",[9],"0.50 (0.11, 0.80)"
same,"12-month progression-free survival rate (95% CI), among responders",[9],"0.50 (0.11, 0.80)"
same,Confirmed complete response (CR),[10],0%
same,Confirmed partial response (PR),[10],6 (17.1%)
same,Disease control rate (CR + PR + SD),[10],25 (71.4%)
same,Inevaluable,[10],2 (5.7%)
same,Objective response rate (CR + PR),[10],6 (17.1%)
same,Progressive disease (PD),[10],8 (22.9%)
same,"6-month progression-free survival rate (95% CI), among responders",[11],"0.45 (0.32, 0.58)"
same,"9-month progression-free survival rate (95% CI), among responders",[11],"0.29 (0.17, 0.42)"
same,"12-month progression-free survival rate (95% CI), among responders",[11],"0.22 (0.12, 0.35)"
same,Confirmed complete response (CR),[12],6 (4.1%)
same,Confirmed partial response (PR),[12],52 (35.4%)
same,Disease control rate (CR + PR + SD),[12],117 (79.6%)
same,Inevaluable,[12],5 (3.4%)
same,Objective response rate (CR + PR),[12],58 (39.5%)
same,Progressive disease (PD),[12],25 (17.0%)
same,"6-month progression-free survival rate (95% CI), among responders",[13],"0.50 (0.06, 0.84)"
same,"9-month progression-free survival rate (95% CI), among responders",[13],"0.50 (0.06, 0.84)"
same,"12-month progression-free survival rate (95% CI), among responders",[13],"0.25 (0.01, 0.67)"
same,Confirmed complete response (CR),"Total (all 3 regimens), FGFR mutations and fusions, n=7",1 (14.3%)
